Experimental data reported in PubChem BioAssay AID256 (DTP/NCI, 2004).
Where “and” joins values, the source holds several entries; their conditions need not be identical. Equal values may be shown once. Toxic doses and inconclusive results are not listed.

Tested on: CD2F1 mice, L1210 leukemia ip, survival T/C
Test: NCI In Vivo Anticancer Drug Screen. Data for tumor model L1210 Leukemia (intraperitoneal) in CD2F1 (CDF1) mice
Conditions: higher = longer survival
How it was run: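 Ratio T/C, where T is the treated-group value and C the vehicle-dosed control value, from mice implanted with a transplantable tumor.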

[1] = endpoint: mean survival time, dose: 12.5 mg/kg/injection, schedule: Q01DX009 (ip), vehicle: water
[2] = endpoint: mean survival time, dose: 25.0 mg/kg/injection, schedule: Q01DX009 (ip), vehicle: water
[3] = endpoint: mean survival time, dose: 50.0 mg/kg/injection, schedule: Q01DX009 (ip), vehicle: water
[4] = endpoint: mean survival time, dose: 100.0 mg/kg/injection, schedule: Q01DX009 (ip), vehicle: water
[5] = endpoint: mean survival time, dose: 100.0 mg/kg/injection, schedule: Q04DX003 (ip), vehicle: saline with Tween-80
[6] = endpoint: mean survival time, dose: 200.0 mg/kg/injection, schedule: Q04DX003 (ip), vehicle: saline with Tween-80
[7] = endpoint: mean survival time, dose: 400.0 mg/kg/injection, schedule: Q04DX003 (ip), vehicle: saline with Tween-80
[8] = endpoint: mean survival time, dose: 100.0 mg/kg/injection, schedule: Q01DX001 (ip), vehicle: saline with Tween-80
[9] = endpoint: mean survival time, dose: 200.0 mg/kg/injection, schedule: Q01DX001 (ip), vehicle: saline with Tween-80
[10] = endpoint: mean survival time, dose: 400.0 mg/kg/injection, schedule: Q01DX001 (ip), vehicle: saline with Tween-80
[11] = endpoint: mean survival time, dose: 50.0 mg/kg/injection, schedule: Q01DX009 (ip), vehicle: saline with Tween-80
[12] = endpoint: mean survival time, dose: 200.0 mg/kg/injection, schedule: Q01DX009 (ip), vehicle: saline with Tween-80
[13] = endpoint: mean survival time, dose: 400.0 mg/kg/injection, schedule: Q01DX009 (ip), vehicle: saline with Tween-80
[14] = endpoint: mean survival time, dose: 100.0 mg/kg/injection, schedule: Q04DX003 (ip), vehicle: saline
[15] = endpoint: mean survival time, dose: 100.0 mg/kg/injection, schedule: Q01DX009 (ip), vehicle: saline with Tween-80

CS(=O)CSCC(N)C(=O)O (configuration not stated)
T/C [1]: 107 % of control | T/C [2]: 100 % of control | T/C [3]: 102 % of control | T/C [4]: 102 % of control | T/C (endpoint: mean survival time, dose: 200.0 mg/kg/injection, schedule: Q01DX009 (ip), vehicle: water): 100 % of control

CS(=O)(=O)c1cnccn1
T/C (endpoint: mean survival time, dose: 100.0 mg/kg/injection, schedule: Q04DX003 (ip), vehicle: saline sonified): 93 % of control | T/C (endpoint: mean survival time, dose: 200.0 mg/kg/injection, schedule: Q04DX003 (ip), vehicle: saline sonified): 95 % of control | T/C (endpoint: mean survival time, dose: 400.0 mg/kg/injection, schedule: Q04DX003 (ip), vehicle: saline sonified): 96 % of control

CS(=O)(=O)OCC(OS(C)(=O)=O)C(OS(C)(=O)=O)C(OS(C)(=O)=O)C(COS(C)(=O)=O)OS(C)(=O)=O (configuration not stated)
T/C (endpoint: mean survival time, dose: 12.5 mg/kg/injection, schedule: Q01DX009 (ip), vehicle: Klucel (hydroxypropylcellulose) (HPC)): 101 % of control | T/C (endpoint: mean survival time, dose: 25.0 mg/kg/injection, schedule: Q01DX009 (ip), vehicle: Klucel (hydroxypropylcellulose) (HPC)): 104 % of control | T/C (endpoint: mean survival time, dose: 50.0 mg/kg/injection, schedule: Q01DX009 (ip), vehicle: Klucel (hydroxypropylcellulose) (HPC)): 101 % of control

[O-][n+]1ccccc1C[P+](c1ccccc1)(c1ccccc1)c1ccccc1
T/C [1]: 101 % of control | T/C [2]: 100 % of control | T/C [3]: 105 % of control | T/C [4]: 96 % of control

O=[N+]([O-])c1cccc2c1ccc1cccnc12
T/C (endpoint: mean survival time, dose: 100.0 mg/kg/injection, schedule: Q04DX002 (ip), vehicle: saline with Tween-80): 90 % of control | T/C (endpoint: mean survival time, dose: 200.0 mg/kg/injection, schedule: Q04DX002 (ip), vehicle: saline with Tween-80): 95 % of control | T/C (endpoint: mean survival time, dose: 400.0 mg/kg/injection, schedule: Q04DX002 (ip), vehicle: saline with Tween-80): 98 % of control

O=C1c2ccccc2C(=O)N1CC(O)COc1ccccc1 (configuration not stated)
T/C [5]: 94 % of control | T/C [6]: 101 % of control | T/C [7]: 103 % of control

N=c1c(C(=O)OCc2ccccc2)ncc(CCl)n1O
T/C (endpoint: median survival time, dose: 25.0 mg/kg/injection, schedule: Q01DX009 (ip), vehicle: saline with Tween-80): 100 % of control | T/C (endpoint: median survival time, dose: 50.0 mg/kg/injection, schedule: Q01DX009 (ip), vehicle: saline with Tween-80): 101 % of control and 102 % of control | T/C (endpoint: median survival time, dose: 100.0 mg/kg/injection, schedule: Q01DX009 (ip), vehicle: saline with Tween-80): 97 % of control and 109 % of control | T/C (endpoint: median survival time, dose: 200.0 mg/kg/injection, schedule: Q01DX009 (ip), vehicle: saline with Tween-80): 93 % of control and 97 % of control | T/C (endpoint: median survival time, dose: 400.0 mg/kg/injection, schedule: Q01DX009 (ip), vehicle: saline with Tween-80): 99 % of control and 100 % of control

Fc1c(F)c(F)c(Oc2c(F)c(F)c(Cl)c(F)c2F)c(F)c1F
T/C [8]: 91 % of control | T/C [9]: 91 % of control | T/C [10]: 88 % of control

BrC1CCCCCCC1
T/C [5]: 92 % of control | T/C [6]: 98 % of control | T/C [7]: 95 % of control

C[N+](C)(C)CSSC[N+](C)(C)C
T/C (endpoint: mean survival time, dose: 12.5 mg/kg/injection, schedule: Q04DX002 (ip), vehicle: saline): 96 % of control | T/C (endpoint: mean survival time, dose: 25.0 mg/kg/injection, schedule: Q04DX002 (ip), vehicle: saline): 96 % of control | T/C (endpoint: mean survival time, dose: 50.0 mg/kg/injection, schedule: Q04DX002 (ip), vehicle: saline): 103 % of control

CN(C)N=Nc1c(F)c(F)cc(F)c1F
T/C (endpoint: mean survival time, dose: 25.0 mg/kg/injection, schedule: Q01DX009 (ip), vehicle: saline with Tween-80): 102 % of control | T/C [11]: 107 % of control | T/C [12]: 151 % of control | T/C [13]: 112 % of control

CCCCCCCCN(C)S(=O)(=O)CCCC
T/C (endpoint: mean survival time, dose: 6.25 mg/kg/injection, schedule: Q01DX009 (ip), vehicle: water): 103 % of control | T/C [1]: 95 % of control | T/C [2]: 106 % of control | T/C [3]: 111 % of control | T/C [4]: 103 % of control

COc1cc2c(cc1OC)C(C)=NCC2
T/C [14]: 104 % of control

CC(C)([NH-])C[NH-].[Cl][Pt+2][Cl]
T/C (endpoint: median survival time, dose: 10.0 mg/kg/injection, schedule: Q04DX003 (ip), vehicle: saline with Tween-80): 98 % of control | T/C (endpoint: median survival time, dose: 20.0 mg/kg/injection, schedule: Q04DX003 (ip), vehicle: saline with Tween-80): 95 % of control | T/C (endpoint: median survival time, dose: 40.0 mg/kg/injection, schedule: Q04DX003 (ip), vehicle: saline with Tween-80): 102 % of control | T/C (endpoint: median survival time, dose: 80.0 mg/kg/injection, schedule: Q04DX003 (ip), vehicle: saline with Tween-80): 103 % of control and 112 % of control | T/C (endpoint: median survival time, dose: 160.0 mg/kg/injection, schedule: Q04DX003 (ip), vehicle: saline with Tween-80): 117 % of control

O=C1NC2(c3ccccc3)NC(=O)NC2(c2ccccc2)N1 (configuration not stated)
T/C [15]: 98 % of control | T/C [5]: 101 % of control | T/C [12]: 98 % of control | T/C [6]: 97 % of control | T/C [13]: 104 % of control | T/C [7]: 95 % of control

CC(C)(C)C1=C(N=[N+]=[N-])C(=O)C(C(C)(C)C)=C(N=[N+]=[N-])C1=O
T/C (endpoint: mean survival time, dose: 100.0 mg/kg/injection, schedule: Q01DX001 (ip), vehicle: other): 104 % of control | T/C (endpoint: mean survival time, dose: 200.0 mg/kg/injection, schedule: Q01DX001 (ip), vehicle: other): 104 % of control | T/C (endpoint: mean survival time, dose: 400.0 mg/kg/injection, schedule: Q01DX001 (ip), vehicle: other): 101 % of control

COC(=O)C(NC(=O)C(CSC(c1ccccc1)(c1ccccc1)c1ccccc1)NC(c1ccccc1)(c1ccccc1)c1ccccc1)C(C)C (configuration not stated)
T/C (endpoint: mean survival time, dose: 50.0 mg/kg/injection, schedule: Q01DX009 (ip), vehicle: saline): 98 % of control | T/C (endpoint: mean survival time, dose: 100.0 mg/kg/injection, schedule: Q01DX009 (ip), vehicle: saline): 92 % of control | T/C (endpoint: mean survival time, dose: 200.0 mg/kg/injection, schedule: Q01DX009 (ip), vehicle: saline): 97 % of control | T/C (endpoint: mean survival time, dose: 400.0 mg/kg/injection, schedule: Q01DX009 (ip), vehicle: saline): 89 % of control

O=C1c2ccccc2C(=O)N1CCCCCCCCCCN1C(=O)c2ccccc2C1=O
T/C [15]: 92 % of control | T/C [12]: 89 % of control | T/C [13]: 93 % of control

CC(C)(C)C1=CC(=O)C(C(C)(C)C)=CC1=O
T/C [8]: 97 % of control | T/C [9]: 103 % of control

Cc1ccc(NC(=O)OCCSCCOC(=O)Nc2ccc(C)cc2)cc1
T/C (endpoint: mean survival time, dose: 100.0 mg/kg/injection, schedule: Q04DX003 (ip), vehicle: other): 93 % of control | T/C (endpoint: mean survival time, dose: 200.0 mg/kg/injection, schedule: Q04DX003 (ip), vehicle: other): 96 % of control | T/C (endpoint: mean survival time, dose: 400.0 mg/kg/injection, schedule: Q04DX003 (ip), vehicle: other): 93 % of control

O=c1[nH]c2cc(Cl)ccc2c2ccc(Cl)cc12
T/C (endpoint: mean survival time, dose: 50.0 mg/kg/injection, schedule: Q01DX001 (ip), vehicle: carboxymethylcellulose (CMC)): 98 % of control | T/C (endpoint: mean survival time, dose: 100.0 mg/kg/injection, schedule: Q01DX001 (ip), vehicle: carboxymethylcellulose (CMC)): 98 % of control | T/C (endpoint: mean survival time, dose: 200.0 mg/kg/injection, schedule: Q01DX001 (ip), vehicle: carboxymethylcellulose (CMC)): 104 % of control | T/C (endpoint: mean survival time, dose: 400.0 mg/kg/injection, schedule: Q01DX001 (ip), vehicle: carboxymethylcellulose (CMC)): 95 % of control

Cc1ccc(S(=O)(=O)N(C)c2ccc(C(=O)O)c(Cl)c2Cl)cc1
T/C [8]: 96 % of control | T/C [15]: 101 % of control | T/C [9]: 93 % of control | T/C [12]: 98 % of control | T/C [10]: 102 % of control | T/C [13]: 98 % of control

Cc1ccc(C(C)C)c(OCC2=NCCN2C)c1
T/C [14]: 106 % of control | T/C (endpoint: mean survival time, dose: 200.0 mg/kg/injection, schedule: Q04DX003 (ip), vehicle: saline): 106 % of control

CC(C)(C)OC(=O)Cc1ccccc1
T/C [8]: 91 % of control | T/C [9]: 97 % of control | T/C [10]: 94 % of control

CC(=O)Oc1ccc([N+](=O)[O-])cc1[N+](=O)[O-]
T/C (endpoint: mean survival time, dose: 25.0 mg/kg/injection, schedule: Q04DX002 (ip), vehicle: Klucel (hydroxypropylcellulose) (HPC)): 93 % of control

CN(C)NC(=O)CC(NCc1ccccc1)C(=O)O (configuration not stated)
T/C [5]: 102 % of control | T/C [6]: 101 % of control | T/C [7]: 98 % of control

N#CCCC(=O)c1nc(N)nc(N)n1
T/C [11]: 91 % of control | T/C [15]: 91 % of control | T/C [12]: 91 % of control

CC(=O)OCC1OC(OC(C)=O)C(On2nnc3c(-c4ccccc4)c(C)nn32)C(OC(C)=O)C1OC(C)=O (configuration not stated)
T/C (endpoint: median survival time, dose: 12.5 mg/kg/injection, schedule: Q01DX005 (ip), vehicle: Klucel (hydroxypropylcellulose) (HPC)): 93 % of control | T/C (endpoint: median survival time, dose: 25.0 mg/kg/injection, schedule: Q01DX005 (ip), vehicle: Klucel (hydroxypropylcellulose) (HPC)): 95 % of control | T/C (endpoint: median survival time, dose: 50.0 mg/kg/injection, schedule: Q01DX005 (ip), vehicle: Klucel (hydroxypropylcellulose) (HPC)): 97 % of control | T/C (endpoint: median survival time, dose: 100.0 mg/kg/injection, schedule: Q01DX005 (ip), vehicle: Klucel (hydroxypropylcellulose) (HPC)): 95 % of control
